Laboratory results taken from ChEMBL document CHEMBL5214976, “Design, synthesis and anti-tumor activity studies of novel pyrido[3, 4-d]pyrimidine derivatives” (Bioorg Med Chem Lett, 2022).
Activity calls are given as the source filed them. The rule behind the calls is not given here.

Legend:
HepG2 [1] = test: Antitumor activity human HepG2 cells assessed as inhibition of cell proliferation incubated for 72 hrs by MTT assay; format: functional, cell-based; conditions: HepG2, 72 h
PC-3 = test: Antitumor activity against human PC-3 cells assessed as inhibition of cell proliferation incubated for 72 hrs by MTT assay; format: functional, cell-based; conditions: PC-3, 72 h
MGC-803 [2] = test: Antitumor activity human MGC-803 cells assessed as inhibition of cell proliferation incubated for 72 hrs by MTT assay; format: functional, cell-based; conditions: MGC-803, 72 h
HepG2 [3] = test: Potency index, ratio of 5-fluorouracil IC50 to test compound IC50 for antiproliferative activity against human HepG2 cells assessed as inhibition of cell proliferation incubated for 72 hrs by MTT assay; format: functional
MGC-803 [4] = test: Potency index, ratio of 5-fluorouracil IC50 to test compound IC50 for antiproliferative activity against human MGC-803 cells assessed as inhibition of cell proliferation incubated for 72 hrs by MTT assay; format: functional
MGC-803 [5] = test: Antiproliferative activity against human MGC-803 cells assessed as inhibition of cell proliferation incubated for 48 hrs by MTT assay; format: functional, cell-based; conditions: MGC-803, 48 h
MGC-803 [6] = test: Induction of cell cycle arrest in human MGC-803 cells assessed as accumulation of cells at G1/S phase by measuring decrease in CycD1 protein expression at 0.25 to 0.75 uM by Western blot analysis; format: functional, cell-based; conditions: dose 0.25-0.75 µM
MGC-803 [7] = test: Induction of apoptosis in human MGC-803 cells assessed as increase in Bid protein expression by Western blot analysis; format: functional, cell-based; conditions: dose 0.25-0.75 µM, DDE = dose-dependent effect
MGC-803 [8] = test: Induction of apoptosis in human MGC-803 cells assessed as necrotic cells at 0.75 uM by Annexin V-FITC/PI staining based flow cytometric analysis (reference value: 0.4 %); format: functional
MGC-803 [9] = test: Induction of apoptosis in human MGC-803 cells assessed as viable cells at 0.75 uM by Annexin V-FITC/PI staining based flow cytometric analysis (reference value: 95.0 %); format: functional; conditions: read-out: Activity
MGC-803 [10] = test: Induction of apoptosis in human MGC-803 cells assessed as late apoptotic cells at 0.5 uM by Annexin V-FITC/PI staining based flow cytometric analysis (reference value: 2.8 %); format: functional
MGC-803 [11] = test: Induction of apoptosis in human MGC-803 cells assessed as late apoptotic cells at 0.75 uM by Annexin V-FITC/PI staining based flow cytometric analysis (reference value: 2.8 %); format: functional
MGC-803 [12] = test: Induction of apoptosis in human MGC-803 cells assessed as increase in PARP protein expression by Western blot analysis; format: functional, cell-based; conditions: dose 0.25-0.75 µM, DDE = dose-dependent effect
MGC-803 [13] = test: Induction of apoptosis in human MGC-803 cells assessed as total apoptotic cells at 0.5 uM by Annexin V-FITC/PI staining based flow cytometric analysis (reference value: 4.6%); format: functional
MGC-803 [14] = test: Induction of apoptosis in human MGC-803 cells assessed as late apoptotic cells at 0.25 uM by Annexin V-FITC/PI staining based flow cytometric analysis (reference value: 2.8 %); format: functional
MGC-803 [15] = test: Induction of apoptosis in human MGC-803 cells assessed as early apoptotic cells at 0.25 uM by Annexin V-FITC/PI staining based flow cytometric analysis (reference value: 1.8 %); format: functional
MGC-803 [16] = test: Induction of apoptosis in human MGC-803 cells assessed as necrotic cells at 0.5 uM by Annexin V-FITC/PI staining based flow cytometric analysis (reference value: 0.4 %); format: functional
MGC-803 [17] = test: Induction of apoptosis in human MGC-803 cells assessed as total apoptotic cells at 0.25 uM by Annexin V-FITC/PI staining based flow cytometric analysis (reference value: 4.6%); format: functional
MGC-803 [18] = test: Induction of apoptosis in human MGC-803 cells assessed as viable cells at 0.25 uM by Annexin V-FITC/PI staining based flow cytometric analysis (reference value: 95.0 %); format: functional; conditions: read-out: Activity
MGC-803 [19] = test: Induction of apoptosis in human MGC-803 cells assessed as necrotic cells at 0.25 uM by Annexin V-FITC/PI staining based flow cytometric analysis (reference value: 0.4 %); format: functional
MGC-803 [20] = test: Induction of apoptosis in human MGC-803 cells assessed as total apoptotic cells at 0.75 uM by Annexin V-FITC/PI staining based flow cytometric analysis (reference value: 4.6%); format: functional
MGC-803 [21] = test: Induction of apoptosis in human MGC-803 cells assessed as early apoptotic cells at 0.75 uM by Annexin V-FITC/PI staining based flow cytometric analysis (reference value: 1.8 %); format: functional
MGC-803 [22] = test: Induction of apoptosis in human MGC-803 cells assessed as viable cells at 0.5 uM by Annexin V-FITC/PI staining based flow cytometric analysis (reference value: 95.0 %); format: functional; conditions: read-out: Activity
MGC-803 [23] = test: Induction of apoptosis in human MGC-803 cells assessed as early apoptotic cells at 0.5 uM by Annexin V-FITC/PI staining based flow cytometric analysis (reference value: 1.8 %); format: functional

SMILES | IC50 (HepG2 [1]) [µM] | IC50 (PC-3) [µM] | IC50 (MGC-803 [2]) [µM] | other results
C#CCSc1nc(N2CCN(Cc3ccccc3)CC2)c2ccncc2n1 | > 80 | > 80 | > 80 | 
COc1cccc(Nc2nc(SCC3CCCCC3)nc3cnccc23)c1 | 32.8 | 27.5 | 23.7 | 
C#CCSc1nc(N2CCN(CC)CC2)c2ccncc2n1 | > 80 | > 80 | 70.6 | 
C#CCSc1nc(N2CCN(C)CC2)c2ccncc2n1 | > 80 | > 80 | > 80 | 
C#CCSc1nc(Nc2cccc(OC)c2)c2ccncc2n1 | 0.92 | 17.1 | 2.07 | Ratio IC50 (HepG2 [3]): 30; Ratio IC50 (MGC-803 [4]): 3
C#CCSc1nc(NCCC#N)c2ccncc2n1 | > 80 | > 80 | > 80 | 
C#CCSc1nc(Nc2ccc(C)cc2)c2ccncc2n1 | 6.17 | 15.7 | 8.09 | 
C#CCSc1nc(Nc2ccc(OC)cc2)c2ccncc2n1 | > 80 | 15.1 | > 80 | 
Cc1cc(Cc2nc(C)c3ccccc3n2)n2ncnc2n1 |  |  |  | IC50 (MGC-803 [5]): 8.28 µM
C#CCSc1nc(N2CCOCC2)c2ccncc2n1 | > 80 | > 80 | > 80 | 
CCSc1nc(Nc2cccc(OC)c2)c2ccncc2n1 | 10.7 | 7.15 | 0.59 | Activity (MGC-803 [6]): Active; Activity (MGC-803 [7]): Dde; Activity (MGC-803 [8]): 0.2%; viability at 0.75 µM (MGC-803 [9]): 24.1%; Activity (MGC-803 [10]): 11.6%; Activity (MGC-803 [11]): 36.8%; Activity (MGC-803 [12]): Dde; Activity (MGC-803 [13]): 27.6%; Activity (MGC-803 [14]): 3%; Activity (MGC-803 [15]): 6.8%; Activity (MGC-803 [16]): 0.5%; Activity (MGC-803 [17]): 9.8%; viability at 0.25 µM (MGC-803 [18]): 90%; Activity (MGC-803 [19]): 0.2%; Activity (MGC-803 [20]): 75.7%; Activity (MGC-803 [21]): 38.9%; viability at 0.5 µM (MGC-803 [22]): 71.9%; Activity (MGC-803 [23]): 16%
C#CCSc1nc(NCCC(C)C)c2ccncc2n1 | > 80 | > 80 | > 80 | 
C#CCSc1nc(Nc2ccccc2)c2ccncc2n1 | 29.4 | > 80 | 16.2 | 
C#CCSc1nc(Nc2ccc(Cl)cc2)c2ccncc2n1 | 36.7 | 19 | 16.4 | 
C#CCSc1nc(Nc2cccc(O)c2)c2ccncc2n1 | 29.5 | > 80 | 15.7 | 
C#CCSc1nc(Nc2ccc(O)cc2)c2ccncc2n1 | > 80 | > 80 | > 80 | 

SMILES | IC50 (HepG2 [1]) [µM] | IC50 (PC-3) [µM] | IC50 (MGC-803 [2]) [µM] | other results
C#CCSc1nc(Nc2ccc(Br)cc2)c2ccncc2n1 | 56.2 | 26 | 26 | 
C#CCSc1nc(Nc2cc(OC)c(OC)c(OC)c2)c2ccncc2n1 | 14.2 | 30.7 | 5.68 | 
C#CCSc1nc(Nc2ccc(F)cc2)c2ccncc2n1 | 10.8 | 17.3 | 15.8 | 
C#CCSc1nc(Nc2ccc(Cl)cc2Cl)c2ccncc2n1 | 11 | 30.4 | 25.5 | 
C#CCSc1nc(Nc2cccc(Cl)c2)c2ccncc2n1 | 1.09 | 56.5 | 2.19 | 
C#CCSc1nc(N2CCSCC2)c2ccncc2n1 | > 80 | > 80 | > 80 | 
COc1cccc(Nc2nc(SCC3CC3)nc3cnccc23)c1 | 24.9 | 14.8 | 1.34 | 
C#CCSc1nc(Nc2ccccc2Cl)c2ccncc2n1 | 17.2 | > 80 | 27.6 | 
CCCSc1nc(Nc2cccc(OC)c2)c2ccncc2n1 | 17.3 | 15.3 | 1.95 | 
C#CCSc1nc(Nc2ccccc2OC)c2ccncc2n1 | 4.53 | > 80 | 3.44 | 
C#CCSc1nc(Nc2ccccc2O)c2ccncc2n1 | > 80 | 18.7 | 21 | 
C/C=C/Sc1nc(Nc2cccc(OC)c2)c2ccncc2n1 | 18.1 | 6.79 | 1.03 | 
C#CCSc1nc(Nc2ccc([N+](=O)[O-])cc2)c2ccncc2n1 | > 80 | > 80 | > 80 | 
O=c1[nH]cc(F)c(=O)[nH]1 [FLUOROURACIL] | 29.8 | 15.1 | 7.21 | 
C#CCSc1nc(N2CCN(C(=O)OC(C)(C)C)CC2)c2ccncc2n1 | 55.9 | 47.5 | > 80 | 
